Like-named read-outs stand apart in the source and are kept apart here.

For this assay, the system named is Aβ42. The assay is described as follows: Cellular assay for inhibition of Aβ1-42 production (H4 APP751 SWE clone 8.20). As to conditions: H4 APP751 SWE clone 8.20 cells, 19 h incubation. The assay is classed as cell-based. In a few lines:
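Aβ42 read by time-resolved FRET using neoepitope antibody 565 (0.8 ng/well) paired with N-terminal 26D6 (75 ng/well), incubated overnight at 4 °C, then IC50 curve fitting. Cells: H4 APP751 Swedish clone 8.20, exposed to compound for 19 h at 37 °C.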

Setting [1] is: 19 h, unit inferred, read-out: Activity Rating (Aβ42 cellular IC50), numeric value.
Where [2] appears, read: read-out: Activity Rating (Aβ42 cellular IC50), class symbol.
Setting [3] is: 19 h, read-out: Activity Rating (Aβ42 cellular IC50), class symbol.
Setting [4] is: unit inferred, read-out: Activity Rating (Aβ42 cellular IC50), numeric value.

As a reminder, the IC50 is the point on the concentration scale where inhibition reaches its midpoint. On to `Cc1ncn(-c2ccc3cc2OC/C=C\CN(C)c2nc(nc4c2CCC4c2ccc(F)cc2F)N3)n1` (stereo not shown) [Example 57A, (11Z)-18-(2,4-difluorophenyl)-14-methyl-7-(3-methyl-1H-1,2,4-triazol-1-yl)-10,13,14,16,17,18-hexahydro-15,2-(azeno)-8,4-(metheno)cyclopenta[h][1,6,10,12]oxatriazacycloheptadecine], for which the IC50 under setting [1] was 5.5 nM.
As for `Cc1ncn(-c2ccc3cc2OCC(O)CCNc2nc(nc4c2CCC4c2ccc(F)cc2)N3)n1` (single isomer, unassigned) [Example 72C, 18-(4-fluorophenyl)-7-(3-methyl-1H-1,2,4-triazol-1-yl)-10,11,12,13,14,16,17,18-octahydro-15,2-(azeno)-8,4-(metheno)cyclopenta[h][1,6,10,12]oxatriazacycloheptadecin-11(3H)-ol], the IC50 under setting [2] was less than 10 nM.
In the case of `CN1CCCCOc2cc(ccc2-n2cnc(Cl)c2)Nc2nc3c(c1n2)CCC3c1ccccc1` (stereo not shown) [Example 13A, 7-(4-chloro-1H-imidazol-1-yl)-14-methyl-18-phenyl-10,11,12,13,14,16,17,18-octahydro-15,2-(azeno)-8,4-(metheno)cyclopenta[h][1,6,10,12]oxatriazacycloheptadecine], the IC50 under setting [3] is less than 10 nM.
`CN1CC=CCOc2cc(ccc2-n2cnc(Cl)c2)Nc2nc3c(c1n2)CCC3c1ccccc1` (stereo not shown) [Example 4A, (11E)-7-(4-chloro-1H-imidazol-1-yl)-14-methyl-18-phenyl-10,13,14,16,17,18-hexahydro-15,2-(azeno)-8,4-(metheno)cyclopenta[h][1,6,10,12]oxatriazacycloheptadecine]: the 50% inhibitory concentration (IC50) under setting [2] is less than 10 nM.
`Cc1ncn(-c2ccc3cc2OCCCNc2nc(nc4c2CCC4c2ccc(F)cc2F)N3)n1` (stereo not shown) [Example 63A, 17-(2,4-difluorophenyl)-7-(3-methyl-1H-1,2,4-triazol-1-yl)-11,12,13,15,16,17-hexahydro-10H-14,2-(azeno)-8,4-(metheno)cyclopenta[g][1,5,9,11]oxatriazacyclohexadecine]: under setting [3], the IC50 was less than 10 nM.
Still for that read-out and setting: the value for `Cc1ncn(-c2ccc3cc2OCCCCNc2nc(nc4c2CCC4c2ccc(F)cc2F)N3)n1` (stereo not shown) [Example 64B, 18-(2,4-difluorophenyl)-7-(3-methyl-1H-1,2,4-triazol-1-yl)-10,11,12,13,14,16,17,18-octahydro-15,2-(azeno)-8,4-(metheno)cyclopenta[h][1,6,10,12]oxatriazacycloheptadecine] was 10 to 100 nM; that for `Clc1cn(-c2ccc3cc2OCCCNc2nc(nc4c2CCC4c2ccccc2)N3)cn1` (stereo not shown) [Example 9A, 7-(4-chloro-1H-imidazol-1-yl)-17-phenyl-11,12,13,15,16,17-hexahydro-10H-14,2-(azeno)-8,4-(metheno)cyclopenta[g][1,5,9,11]oxatriazacyclohexadecine] was less than 10 nM.
As to `Cc1ncn(-c2ccc3cc2OC/C=C\CN(C)c2nc(nc4c2CCC4c2ccc(F)cc2F)N3)n1` (stereo not shown) [Example 57B, (11Z)-18-(2,4-difluorophenyl)-14-methyl-7-(3-methyl-1H-1,2,4-triazol-1-yl)-10,13,14,16,17,18-hexahydro-15,2-(azeno)-8,4-(metheno)cyclopenta[h][1,6,10,12]oxatriazacycloheptadecine], under setting [3], the half-maximal inhibitory concentration (IC50) was in the range of 10 to 100 nM.
In the case of `Cc1ncnn1-c1ccc2cc1OCC=CCNc1nc(nc3c1CCC3c1ccc(F)cc1F)N2` (stereo not shown) [Example 54B, (11E)-18-(2,4-difluorophenyl)-7-(5-methyl-1H-1,2,4-triazol-1-yl)-10,13,14,16,17,18-hexahydro-15,2-(azeno)-8,4-(metheno)cyclopenta[h][1,6,10,12]oxatriazacycloheptadecine], under setting [2], the IC50 lay within 10 to 100 nM.
The same measure, in the same setting: next, `CN1CC=CCOc2cc(ccc2C#N)Nc2nc3c(c1n2)CCC3c1ccccc1` (stereo not shown) [Example 30A, (11E)-7-cyano-14-methyl-18-phenyl-10,13,14,16,17,18-hexahydro-15,2-(azeno)-8,4-(metheno)cyclopenta[h][1,6,10,12]oxatriazacycloheptadecine]: 10 to 100 nM.
Take `N#Cc1ccc2cc1OCC(O)CCNc1nc(nc3c1CCC3c1ccc(F)cc1)N2` (single isomer, unassigned) [Example 73A, 7-cyano-18-(4-fluorophenyl)-10,11,12,13,14,16,17,18-octahydro-15,2-(azeno)-8,4-(metheno)cyclopenta[h][1,6,10,12]oxatriazacycloheptadecin-11(3H)-ol]: under setting [3], the IC50 fell in the range of 10 to 100 nM.
Take “(11E)-7-(4-chloro-1H-imidazol-1-yl)-18-phenyl-10,13,14,16,17,18-hexahydro-15,2-(azeno)-8,4-(metheno)cyclopenta[h][1,6,10,12]oxatriazacycloheptadecine [Example 2A]”: the half-maximal inhibitory concentration (IC50) under setting [2] lay in the range of 10 to 100 nM.
Still for that read-out and setting: the value for `Cc1ncn(-c2ccc3cc2OCC=CCNc2nc(nc4c2CCC4c2ccc(F)cc2)N3)n1` (stereo not shown) [Example 46B, (11E)-18-(4-fluorophenyl)-7-(3-methyl-1H-1,2,4-triazol-1-yl)-10,13,14,16,17,18-hexahydro-15,2-(azeno)-8,4-(metheno)cyclopenta[h][1,6,10,12]oxatriazacycloheptadecine] was 100 to 1000 nM.
As to `Cc1ncn(-c2ccc3cc2OCCCN(C)c2nc(nc4c2CCC4c2ccc(F)cc2)N3)n1` (stereo not shown) [Example 65B, 13-methyl-7-(3-methyl-1H-1,2,4-triazol-1-yl)-17-(4-fluorophenyl)-11,12,13,15,16,17-hexahydro-10H-14,2-(azeno)-8,4-(metheno)cyclopenta[g][1,5,9,11]oxatriazacyclohexadecine], the IC50 under setting [3] was in the range of 10 to 100 nM.
With “(11E)-7-cyano-18-(2,4-difluorophenyl)-10,13,14,16,17,18-hexahydro-15,2-(azeno)-8,4-(metheno)cyclopenta[h][1,6,10,12]oxatriazacycloheptadecine [Example 25A]”, the IC50 under setting [2] was in the range of 10 to 100 nM.
Turning to `CN1CCCCOc2cc(ccc2C#N)Nc2nc3c(c1n2)CCC3c1ccc(F)cc1F` (single isomer, unassigned) [Example 32A, 7-cyano-18-(2,4-difluorophenyl)-14-methyl-10,11,12,13,14,16,17,18-octahydro-15,2-(azeno)-8,4-(metheno)cyclopenta[h][1,6,10,12]oxatriazacycloheptadecine], the IC50 under setting [2] lay in the range of 10 to 100 nM.
Same read-out and setting: the value for `N#Cc1ccc2cc1OCC=CCNc1nc(nc3c1CCC3c1ccccc1)N2` (stereo not shown) [Example 22A, (11E)-7-cyano-18-phenyl-10,13,14,16,17,18-hexahydro-15,2-(azeno)-8,4-(metheno)cyclopenta[h][1,6,10,12]oxatriazacycloheptadecine] was 10 to 100 nM; that for `CN1CC=CCOc2cc(ccc2-n2cnc(Cl)c2)Nc2nc3c(c1n2)CCC3c1ccccc1` (stereo not shown) [Example 4B, (11E)-7-(4-chloro-1H-imidazol-1-yl)-14-methyl-18-phenyl-10,13,14,16,17,18-hexahydro-15,2-(azeno)-8,4-(metheno)cyclopenta[h][1,6,10,12]oxatriazacycloheptadecine] was 10 to 100 nM.
In the case of `CN1CCCCOc2cc(ccc2C#N)Nc2nc3c(c1n2)CCC3c1ccccc1` (single isomer, unassigned) [Example 34A, 7-cyano-14-methyl-18-phenyl-10,11,12,13,14,16,17,18-octahydro-15,2-(azeno)-8,4-(metheno)cyclopenta[h][1,6,10,12]oxatriazacycloheptadecine], the half-inhibitory concentration (IC50) under setting [4] turned out to be 21 nM.
For the compound `Cc1ncnn1-c1ccc2cc1OC/C=C\CN(C)c1nc(nc3c1CCC3c1ccccc1)N2` (stereo not shown) [Example 41B, (11Z)-14-methyl-7-(5-methyl-1H-1,2,4-triazol-1-yl)-18-phenyl-10,13,14,16,17,18-hexahydro-15,2-(azeno)-8,4-(metheno)cyclopenta[h][1,6,10,12]oxatriazacycloheptadecine], under setting [3], the IC50 was 10 to 100 nM.
Take `Fc1ccc(C2CCc3c4nc(nc32)Nc2ccc(-n3cnc(Cl)c3)c(c2)OCC=CCN4)c(F)c1` (stereo not shown) [Example 15A, (11E)-7-(4-chloro-1H-imidazol-1-yl)-18-(2,4-difluorophenyl)-10,13,14,16,17,18-hexahydro-15,2-(azeno)-8,4-(metheno)cyclopenta[h][1,6,10,12]oxatriazacycloheptadecine]: the IC50 under setting [2] was less than 10 nM.
Take `Clc1cn(-c2ccc3cc2OCCCCCNc2nc(nc4c2CCC4c2ccccc2)N3)cn1` (stereo not shown) [Example 11A, 7-(4-chloro-1H-imidazol-1-yl)-19-phenyl-3,10,11,12,13,14,15,17,18,19-decahydro-2,16-(azeno)-8,4-(metheno)cyclopenta[f][1,7,9,13]oxatriazacyclooctadecine]: under setting [1], the IC50 stood at 3.8 nM.
As to `CN1Cc2c(nc3nc2N(C)C/C=C\COc2cc(ccc2C#N)N3)C(c2ccc(F)cc2)C1` (racemic) [Example 74, (11Z)-14,17-dimethyl-7-cyano-19-(4-fluorophenyl)-13,14,16,17,18,19-hexahydro-10H-15,2-(azeno)-8,4-(metheno)pyrido[3,4-h][1,6,10,12]oxatriazacycloheptadecine], the IC50 under setting [3] fell in the range of 10 to 100 nM.
In the case of `Cc1ncnn1-c1ccc2cc1OCCCCNc1nc(nc3c1CCC3c1ccccc1)N2` (stereo not shown) [Example 47A, 7-(5-methyl-1H-1,2,4-triazol-1-yl)-18-phenyl-10,11,12,13,14,16,17,18-octahydro-15,2-(azeno)-8,4-(metheno)cyclopenta[h][1,6,10,12]oxatriazacycloheptadecine], the IC50 under setting [1] was 5.6 nM.
“(11Z)-18-(2,4-difluorophenyl)-7-(5-methyl-1H-1,2,4-triazol-1-yl)-10,13,14,16,17,18-hexahydro-15,2-(azeno)-8,4-(metheno)cyclopenta[h][1,6,10,12]oxatriazacycloheptadecine [Example 53B]”: the IC50 under setting [4] was determined as 17 nM.

The record behind these values is US8637523B2, “Compounds for the reduction of beta-amyloid production” (Bristol-Myers Squibb Company, priority 2010, dated 2014).
